From PubChem BioAssay (NCI)
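Values below derive from 48-hour exposures of cells grown in 96-well plates, with endpoints linearly interpolated between the two concentrations bracketing the appropriate inhibition level. Abbreviation: GI50, concentration required for 50% inhibition of growth. TGI: total growth inhibition.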

Legend:
Experiment in all cases: NCI anticancer screen, dose series, 48 h
LOX IMVI melanoma = test system: LOX IMVI melanoma
NCI-H23 lung = test system: NCI-H23 lung
UACC-257 melanoma = test system: UACC-257 melanoma
SF-268 CNS = test system: SF-268 CNS
IGROV1 ovarian = test system: IGROV1 ovarian
A549 NSCLC = test system: A549 NSCLC
OVCAR-5 ovarian = test system: OVCAR-5 ovarian
K-562 leukemia = test system: K-562 leukemia
T-47D breast = test system: T-47D breast
MDA-MB-435 = test system: MDA-MB-435

Row | SMILES | TGI (LOX IMVI melanoma) [µM] | TGI (NCI-H23 lung) [µM] | TGI (UACC-257 melanoma) [µM] | TGI (SF-268 CNS) [µM] | TGI (IGROV1 ovarian) [µM] | TGI (A549 NSCLC) [µM] | TGI (OVCAR-5 ovarian) [µM] | TGI (K-562 leukemia) [µM] | GI50 (T-47D breast) [µM] | TGI (T-47D breast) [µM] | GI50 (LOX IMVI melanoma) [µM] | GI50 (NCI-H23 lung) [µM] | GI50 (UACC-257 melanoma) [µM] | GI50 (SF-268 CNS) [µM] | GI50 (A549 NSCLC) [µM] | GI50 (OVCAR-5 ovarian) [µM] | GI50 (MDA-MB-435) [µM] | TGI (MDA-MB-435) [µM] | GI50 (IGROV1 ovarian) [µM] | GI50 (K-562 leukemia) [µM]
1 | O=C1CCSC2=C1SCc1sccc12 | > 100 | > 100 | > 100 | > 100 | > 100 | > 100 | > 100 | > 100 | – | – | – | – | – | – | – | – | – | – | – | –
2 | Nc1cc(=O)n(-c2ccccc2)c(=S)n1-c1ccccc1 | > 100 | – | > 100 | > 100 | > 100 | > 100 | > 100 | > 100 | – | – | – | – | – | – | – | – | – | – | – | –
3 | COc1ccccc1NC(=O)c1nc2ccc([N+](=O)[O-])cc2nc1C | > 100 | > 100 | > 100 | > 100 | > 100 | > 100 | > 100 | > 100 | – | – | – | – | – | – | – | – | – | – | – | –
4 | N/N=c1\c2ccccc2c2cc3c(cc12)/c(=N/N)c1ccccc13 | – | > 100 | > 100 | > 100 | > 100 | > 100 | > 100 | > 100 | – | – | – | – | – | – | – | – | – | – | – | –
5 | O=S(=O)(/N=c1/scc(-c2ccccc2)n1-c1ccccc1)c1ccc(N2N=C3c4ccccc4CC3C2c2cccs2)cc1 (centres undefined) | > 100 | > 100 | > 100 | > 100 | – | > 100 | > 100 | > 100 | > 100 | > 100 | 32.4 | 68 | > 100 | > 100 | 57 | 88.9 | 38.7 | > 100 | – | –
6 | c1ccc2cc(C[n+]3ccn(CCCCCCCCCCn4cc[n+](Cc5ccc6ccccc6c5)c4)c3)ccc2c1 | 3.66 | 3.35 | 5.58 | 12.3 | 3.08 | – | 9.48 | 2.97 | 0.491 | 4.74 | 1.21 | 0.445 | 1.37 | 0.61 | – | 1.87 | 0.819 | 5.43 | 1.11 | 0.602
7 | OCc1c[te]c(-c2ccccc2)c1 | – | 62.8 | > 100 | – | > 100 | > 100 | > 100 | > 100 | – | – | – | – | – | – | – | – | – | – | – | –
8 | CC1(C)[C@@H](OC(=O)CCC(=O)O)CC[C@]2(C)[C@H]3C(=O)C=C4[C@@H]5C[C@@](C)(C(=O)O)CC[C@]5(C)CC[C@@]4(C)[C@]3(C)CC[C@@H]12 | – | 115 | 91.4 | 143 | 100 | 130 | 125 | 230 | – | – | – | 60.1 | 66.2 | 55.7 | 61 | 83.2 | 58.2 | 98.8 | 55.8 | 56.2
9 | Cc1ccc(S(=O)OCC23CC4CC(CC(C4)C2)C3)cc1 (centres undefined) | > 100 | > 100 | > 100 | > 100 | > 100 | > 100 | > 100 | > 100 | – | – | – | – | – | – | – | – | – | – | – | –
10 | CC(=O)Nc1ccc(COC(O)CN2CCCCC2)cc1[N+](=O)[O-] (centres undefined) | – | > 100 | > 100 | > 100 | > 100 | > 100 | > 100 | > 100 | – | > 100 | – | – | – | – | – | – | – | > 100 | – | –
11 | CC(=O)NC1C(OCc2ccccc2)OC(COC(=O)CCCCCCCCCCNc2ccc([N+](=O)[O-])c3[nH]c4ccccc4c(=O)c23)C(O)C1OC(C)C(=O)NC(C)C(=O)NC(CCC(N)=O)C(=O)OCc1ccccc1 (centres undefined) | > 100 | > 100 | > 100 | > 100 | > 100 | > 100 | > 100 | > 100 | – | – | – | – | – | – | – | – | – | – | – | –
12 | COC(=O)C(Cc1nc2ccccc2nc1C)/C(=N\NC(N)=O)C(=O)Nc1cccc([N+](=O)[O-])c1 (centres undefined) | > 100 | > 100 | > 100 | > 100 | > 100 | > 100 | > 100 | > 100 | – | – | – | – | – | – | – | – | – | – | – | –
13 | O=C(COC(=O)c1cccc2c(=O)c3ccccc3[nH]c12)Nc1ccc(C(=O)O)cc1 | > 10 | > 100 | > 100 | > 100 | > 100 | > 100 | – | > 100 | – | – | – | – | – | – | – | – | – | – | – | –
14 | COc1ccc(C(=O)C(c2ccc(OCc3ccccc3)cc2)c2ccc(OCc3ccccc3)cc2)cc1 | > 100 | > 100 | – | > 100 | > 100 | > 100 | > 100 | > 100 | – | – | – | – | – | – | – | – | – | – | – | –
15 | COc1cc(-c2c(C#N)c(N)nc(N3CCOCC3)c2C#N)cc(OC)c1OC | > 100 | – | > 100 | > 100 | > 100 | > 100 | > 100 | > 100 | 15.1 | > 100 | 79.7 | – | > 100 | > 100 | > 100 | 27.2 | > 100 | > 100 | 92.1 | > 100
16 | CCCCCCCCCCCCCCCCC(=O)O.CCCCCCCCCCCCCCCCCC(=O)O.CCCCCCCCCCCCCCCCCC(=O)O.CCCCCCCCCCCCCCCCCC(=O)O.CCCCCCCCCCCCCCCCCC(=O)O.CO[CH-]OC12COC1CC(O)C1(C)C(O)C(OC(C)O)C3=C(C)C(OC(=O)C(O)C([NH-])c4ccccc4)CC(O)(C(OC(=O)c4ccccc4)C21)C3(C)C.[Cu+].[Zn].[Zn].[Zn].[Zn].[Zn] (centres undefined) | 7.05 | > 14.5 | > 25 | 6.25 | 4.39 | > 22.3 | 4.22 | > 25 | 0.00863 | > 25 | 0.00381 | 0.0115 | 3.91 | – | 0.00818 | 0.0113 | – | – | 0.00711 | 0.005
17 | CCCCCCCCn1ccc2cc(NC(=O)Cn3cc(CN4CCCCC4)nn3)ccc21 | 3.17 | 6.34 | 4.45 | 4.51 | 3.97 | 4.57 | 3.71 | – | 1.99 | 4.31 | 1.63 | 2.35 | 2.01 | 2.05 | 1.99 | 1.78 | 1.68 | 3.15 | 1.88 | –
18 | O=C(/C(=C\c1ccc(Cl)cc1)c1ccccc1)c1ccccc1 | > 100 | > 100 | > 100 | > 100 | > 100 | – | > 100 | > 100 | – | – | – | – | – | – | – | – | – | – | – | –
